# According to patent publication US20100234400A1, “COMPOUNDS THAT MAINTAIN PLURIPOTENCY OF EMBRYONIC STEM CELLS” (IRM LLC, priority 2005, published 2010):
# Tested on: Mouse embryonic stem cells
# Experiment: Mouse ES cells keep pluripotency under differentiation medium (DM)
# Type: cell-based
# Settings: Embryonic stem cell, 144 h, measured by maintenance of GFP expression and colony morphology, differentiation medium (BM+0.3 μM RA or DMEM, 20% FBS), 3 + 3 days incubation
# Description: Materials used for ES cell maintenance, and examples 4 & 5, infra, include: Oct4-GFP mES cells (feeder layer dependent cells); mES R1 cells (feeder layer independent cells); DMEM (GIBCO, 11965-084); Kouckout DMEM (KO DMEM) (GIBCO, 10829-018); DMEM/F12 (GIBCO, 11330-032); Fetal Bovine Serum (FBS) (GIBCO, 26140-079); Knockout Serum Replacer (KO-SR), (GIBCO, 10828-028); B-27 Serum-free Supplement (50X), (GIBCO017504-044); N-2 Supplement (100X) (GIBCO, 17502-048); LIF (10^6 units) (Chemicon, ESG1106); L-Glutamine (GIBCO, 25030-081); Non-essential amino acids (GIBCO, 11140-050); 2-Mercaptoethanol (1000X), (GIBCO, 21985-023); 0.05% Trypsin-EDTA (GIBCO, 25300-054); 0.1% gelatin solution (Stemcell tech., 07903); Basal medium (BM): KO DMEM, 15% KO-SR, 1X L-glutamine, 1X non-essential amino acid, 1×2-mercaptoethanol; and Growth medium (GM): Basal medium+10^3 unit LIF.
# DM induced by retinoic acid (RA): BM+0.3 μM RA, DM induced by FBS: DMEM, 20% FBS. Ninety-six well plates are coated with 0.1% gelatin solution at 37° C. overnight. The gelatin solution is removed by aspiration. Mouse embryonic stem cells are plated on gelatin-coated plates at 10^4 cells/50 μl GM/well. After overnight incubation, the medium is changed to DM and 3 μM of a compound of the invention is added to each well. After 3 days incubation, the medium is replaced with fresh medium and compound. After a further 3 days, the cells are fixed and assayed with pluripotent markers expression and colony morphology. An effective concentration is measured by the maintenance of GFP expression and colony morphology. A list of effective concentrations for various compounds of the invention is disclosed in table 3, infra
row,SMILES,minimal effective concentration
1,"CCNc1ncc2c(n1)N(C)C(=O)N(c1cc(NC(=O)c3cccc(C(F)(F)F)c3)ccc1C)C2 [N-[3-(7-Ethylamino-1-methyl-2-oxo-1,4-dihydro-2H-pyrimido[4,5-d]pyrimidin-3-yl)-4-methyl-phenyl]-3-trifluoromethyl-benzamide]",10 µM
2,"CNc1ncc2c(n1)N(C)C(=O)N(c1cc(NC(=O)c3cccc(C(F)(F)F)c3)ccc1C)C2 [N-[4-Methyl-3-(1-methyl-7-methylamino-2-oxo-1,4-dihydro-2H-pyrimido[4,5-d]pyrimidin-3-yl)-phenyl]-3-trifluoromethyl-benzamide]",3 µM
3,"Cc1cc(Nc2ncc3c(n2)N(C)C(=O)N(c2cc(NC(=O)c4cccc(C(F)(F)F)c4)ccc2C)C3)n(C)n1 [N-{3-[7-(2,5-Dimethyl-2H-pyrazol-3-ylamino)-1-methyl-2-oxo-1,4-dihydro-2H-pyrimido[4,5-d]pyrimidin-3-yl]-4-methyl-phenyl}-3-trifluoromethyl-benzamide]",1 µM
4,"Cc1cc(Nc2ncc3c(n2)N(C)C(=O)N(c2cc(NC(=O)c4cccc(C(F)(F)F)c4)ccc2C)C3)cc(C)n1 [N-{3-[7-(2,6-Dimethyl-pyridin-4-ylamino)-1-methyl-2-oxo-1,4-dihydro-2H-pyrimido[4,5-d]pyrimidin-3-yl]-4-methyl-phenyl}-3-trifluoromethyl-benzamide]",5 µM
5,"CCn1nccc1Nc1ncc2c(n1)N(C)C(=O)N(c1cc(NC(=O)c3cccc(C(F)(F)F)c3)ccc1C)C2 [N-{3-[7-(2-Ethyl-2H-pyrazol-3-ylamino)-1-methyl-2-oxo-1,4-dihydro-2H-pyrimido[4,5-d]pyrimidin-3-yl]-4-methyl-phenyl}-3-trifluoromethyl-benzamide]",2 µM
6,"Cc1ccc(NC(=O)c2cccc(C(F)(F)F)c2)cc1N1Cc2cnc(Nc3cccc(N)c3)nc2N(C)C1=O [N-{3-[7-(3-Amino-phenylamino)-1-methyl-2-oxo-1,4-dihydro-2H-pyrimido[4,5-d]pyrimidin-3-yl]-4-methyl-phenyl}-3-trifluoromethyl-benzamide]",2 µM
7,"Cc1ccc(NC(=O)c2cccc(C(F)(F)F)c2)cc1N1Cc2cnc(Nc3cccc(O)c3)nc2N(C)C1=O [N-{3-[7-(3-Hydroxy-phenylamino)-1-methyl-2-oxo-1,4-dihydro-2H-pyrimido[4,5-d]pyrimidin-3-yl]-4-methyl-phenyl}-3-trifluoromethyl-benzamide]",1 µM
8,"Cc1ccc(NC(=O)c2cccc(C(F)(F)F)c2)cc1N1Cc2cnc(Nc3cccc(NS(C)(=O)=O)c3)nc2N(C)C1=O [N-{3-[7-(3-Methanesulfonylamino-phenylamino)-1-methyl-2-oxo-1,4-dihydro-2H-pyrimido[4,5-d]pyrimidin-3-yl]-4-methyl-phenyl}-3-trifluoromethyl-benzamide]",2 µM
9,"Cc1ccc(NC(=O)c2cccc(C(F)(F)F)c2)cc1N1Cc2cnc(Nc3ccnn3C)nc2N(C)C1=O [N-{4-Methyl-3-[1-methyl-7-(2-methyl-2H-pyrazol-3-ylamino)-2-oxo-1,4-dihydro-2H-pyrimido[4,5-d]pyrimidin-3-yl]-phenyl}-3-trifluoromethyl-benzamide]",1 µM
